pIC50: −log10 of the molar value. Where two headings read alike, the source gives them in different places.
Legend:
Assay in all cases: MTT cell viability assay, combinations (Chou-Talalay method)
Type in all cases: cell-based
HCC78 cells = tested on: HCC78 cells
Method: (§1) The combinations comprising the compound of formula (1) were tested using an MTT proliferation assay in a panel of tumor cell lines of different origins. All culture materials were obtained from the sources described in Example 2. In the Chou-Talalay method, which is the standard, universally known methodology to determine drug interactions, the two drugs under study are maintained at a fixed ratio of IC50 single agent (drug 1):IC50 single agent (drug 2) while the concentration of total amount of drugs in the combination is varied and the 20% (IC20), 50% (IC50) and 80% (IC80) of growth inhibition of the combination is determined.
(§2) In the activity assays on cell lines the following terms are used: • IC50: Drug concentration at which 50% growth inhibition is achieved. • TKI IC50: The IC50 of the tyrosine kinase inhibitor as single agent. • Compound (1) IC50: The IC50 of compound (1) as single agent. • CI@IC20: The combination index of the combination consisting of drug 1 and drug 2 at a weight ratio equal to IC50 of drug 1:IC50 of drug 2 wherein said combination is used at a total amount that achieves 20% of growth inhibition. • CI@IC50: The combination index of the combination consisting of drug 1 and drug 2 at a weight ratio equal to IC50 of drug 1:IC50 of drug 2, wherein said combination is used at a total amount that achieves 50% of growth inhibition. • CI@IC80: The combination index of the combination consisting of drug 1 and drug 2 at a weight ratio equal to IC50 of drug 1:IC50 of drug 2, wherein said combination is used at a total amount that achieves 80% of growth inhibition. • Combination TKI IC50: The combination index at a tyrosine kinase inhibitor concentration that corresponds to the IC50 (single agent). • The combination index (CI) concept was introduced by Chou T.C. and Talalay P.(Chou TC, Talalay P. Adv Enzyme Regul 1984;22:27-55). The derived combination index equation for two drugs is (D = dosage or concentration): CI = ((D)1)/((Dx)1) + ((D)2)/((Dx)2) [formula] where (Dx)1 is the concentration of drug 1 "alone" that inhibits growth at a x% (i.e. (D50)1 is the concentration of drug 1 "alone" that inhibits growth at a 50%), (Dx)2 is the concentration of drug 2 "alone" that inhibits growth at a x%, (D)1 and (D)2 refer to the concentration of drug 1 and drug 2, respectively, in the combination, wherein the combination inhibits growth at the same x%. The CI Value quantitatively defines synergism (CI<1) (in particular, CI values of CI<0.7 indicates strong synergism, 0.7<CI<0.85 indicates moderate synergism, 0.85<CI<1 indicates slight synergism), additive effect (CI=1) and antagonism (CI>1). Based on the above equation, a plot of CI values at different effect levels (fa's) can be determined. Entering a series of "dose" ((D1), (D2), ((Dx)1 and (Dx)2) and % of growth inhibition (%x or effect (fa))" into an excel sheet for each drug alone and their combinations, the CI values at different x% (or fa levels) are obtained using the above equation. This plot is also called the Fa-CI plot or the Chou-Talalay plot.
(§3) Cell viability in response to combination treatment was assessed by the Thiazolyl Blue Tetrazolium Bromide (MTT) (Sigma, St Louis, MO) assay. Cells from each cell line were seeded at 2000 to 10000 per well in 96-well plates. […] Twenty-four hours after seeding, cells were exposed to compound (1), commercial drug or combinations thereof for 72 h. In the Chou-Talalay method, which is the standard, universally known methodology to determine drug interactions, the two drugs under study are maintained at a fixed ratio IC50 single agent (drug 1):IC50 single agent (drug 2).
(§4) After treatment, cells were incubated with medium containing MTT (0.75 mg/mL in medium) for 1-2 h at 37°C. Culture medium with MTT was removed and formazan crystals reabsorbed in 100 µL DMSO (Sigma, St. Louis, MO). Cell viability was determined by measuring the absorbance at 492 nm, using a microplate reader (BioWhittaker, Walkersville, MD).

H2228 Cells = details: Homo sapiens, H2228 cells
Method: as §1, §2, §3, §4

H3122 Cells = details: for pIC50: Homo sapiens
Method: as §1, §2, §3, §4

[1] = Homo sapiens, HCC78, 72 h, HCC78 cells, tyrosine kinase inhibitor as single agent, 72 h, read-out: TKI IC50
[2] = NCI-H3122, 72 h, H3122 cells, tyrosine kinase inhibitor as single agent, 72 h, read-out: TKI IC50

Compound	Fold change in the TKI IC50 (HCC78 cells; HCC78 cells, TKI single agent vs with compound (1)) [fold]	pIC50 (HCC78 cells; [1])	pIC50 (HCC78 cells; Homo sapiens, HCC78, HCC78 cells, TKI in combination with compound (1), read-out: Combination TKI IC50)	pIC50 (HCC78 cells; HCC78 cells, tyrosine kinase inhibitor as single agent, 72 h, read-out: TKI IC50)	pIC50 (HCC78 cells; Homo sapiens, HCC78, read-out: Combination TKI IC50, HCC78 cells, TKI in combination with compound (1))	pIC50 (HCC78 cells; read-out: Combination TKI IC50, HCC78 cells, TKI in combination with compound (1))	pIC50 (H2228 Cells; NCI-H2228, read-out: IC50 of crizotinib when compound of formula (1) was also administered, combination with compound (1))	pIC50 (H2228 Cells; NCI-H2228, tyrosine kinase inhibitor as single agent, 72 h, read-out: TKI IC50)	pIC50 (H3122 Cells; [2])	pIC50 (H3122 Cells; NCI-H3122, read-out: IC50 of crizotinib in presence of compound of formula (1), H3122 cells, combination with compound (1))	Fold change in the TKI IC50 (H3122 Cells; H3122 cells, TKI single agent vs with compound (1)) [fold]	pIC50 (H3122 Cells; NCI-H3122, H3122 cells, TKI in combination with compound (1), read-out: Combination TKI IC50)
COc1cc2c(Oc3ccc(NC(=O)C4(C(=O)Nc5ccc(F)cc5)CC4)cc3F)ccnc2cc1OCCCN1CCOCC1 [Foretinib, N^1'-[3-fluoro-4-[[6-methoxy-7-(3-morpholinopropoxy)-4-quinolyl]oxy]phenyl]-N'-(4-fluorophenyl)cyclopropane-1,1-dicarboxamide]	2.846	6.43	6.89									
C[C@@H](Oc1cc(-c2cnn(C3CCNCC3)c2)cnc1N)c1c(Cl)ccc(F)c1Cl [Crizotinib, 3-[(1R)-1-(2,6-dichloro-3-fluorophenyl)ethoxy]-5-(1-piperidin-4-ylpyrazol-4-yl)pyridin-2-amine]		5.14		5.15	6.60	6.60	7.28	6.60	6.72	7.54		
CCc1cc2c(cc1N1CCC(N3CCOCC3)CC1)C(C)(C)c1[nH]c3cc(C#N)ccc3c1C2=O [Alectinib, 9-ethyl-6,6-dimethyl-8-(4-morpholinopiperidin-1-yl)-11-oxo-6,11-dihydro-5H-benzo[b]carbazole-3-carbonitrile]									7.30		3.355	7.82

Source: EP3120851A1, “4-AMINO-6-(2,6-DICHLOROPHENYL)-8-METHYL-2-(PHENYLAMINO)-PYRIDO[2,3-D]PYRIMIDIN-7(8H)-ONE FOR TREATMENT OF SOLID CANCERS” (Pangaea Biotech S.L., priority 2015, dated 2017)
